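At the GI50, growth is halved. TGI: concentration producing complete growth inhibition.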
How the values were obtained:
Assay in all cases: inhibition of tumour cell growth, NCI panel, 384-well format
OVCAR-5 ovarian = test system: OVCAR-5 ovarian
OVCAR-4 ovarian = test system: OVCAR-4 ovarian
HT29 colon = test system: HT29 colon
SK-OV-3 ovarian = test system: SK-OV-3 ovarian
A549 NSCLC = test system: A549 NSCLC
HCC-2998 colon = test system: HCC-2998 colon
TK-10 renal = test system: TK-10 renal
MCF7 breast = test system: MCF7 breast
HL-60(TB) leukemia = test system: HL-60(TB) leukemia
LOX IMVI melanoma = test system: LOX IMVI melanoma
UO-31 renal = test system: UO-31 renal
MDA-MB-231 breast = test system: MDA-MB-231 breast
OVCAR-8 ovarian = test system: OVCAR-8 ovarian
UACC-62 melanoma = test system: UACC-62 melanoma
UACC-257 melanoma = test system: UACC-257 melanoma
HS 578T breast = test system: HS 578T breast
A498 renal = test system: A498 renal
ACHN renal = test system: ACHN renal
PC-3 prostate = test system: PC-3 prostate
IGROV1 ovarian = test system: IGROV1 ovarian
MOLT-4 leukemia = test system: MOLT-4 leukemia
RXF 393 renal = test system: RXF 393 renal
HOP-62 NSCLC = test system: HOP-62 NSCLC
MDA-MB-468 breast = test system: MDA-MB-468 breast
DU-145 prostate = test system: DU-145 prostate
BT-549 breast = test system: BT-549 breast
HCT-15 colon = test system: HCT-15 colon
COLO 205 colon = test system: COLO 205 colon

CCN1C(=O)N(c2c(F)c(OC)cc(OC)c2F)Cc2cnc3[nH]c(CN4CCOCC4)cc3c21
TGI (OVCAR-5 ovarian): > 100 µM | GI50 (OVCAR-4 ovarian): 19.3 µM | TGI (OVCAR-4 ovarian): > 100 µM | GI50 (HT29 colon): 6.48 µM | GI50 (SK-OV-3 ovarian): 2.62 µM | TGI (SK-OV-3 ovarian): > 100 µM | GI50 (A549 NSCLC): 4.69 µM | TGI (A549 NSCLC): > 31.6 µM | GI50 (HCC-2998 colon): 6.61 µM | TGI (HCC-2998 colon): > 100 µM | GI50 (TK-10 renal): > 100 µM | TGI (TK-10 renal): > 100 µM | GI50 (MCF7 breast): > 60.4 µM | TGI (MCF7 breast): > 100 µM | GI50 (HL-60(TB) leukemia): 3.28 µM | TGI (HL-60(TB) leukemia): 12.5 µM | GI50 (LOX IMVI melanoma): 4.03 µM | TGI (LOX IMVI melanoma): > 31.5 µM | GI50 (UO-31 renal): > 31 µM | TGI (UO-31 renal): > 100 µM | GI50 (MDA-MB-231 breast): 6.15 µM | TGI (MDA-MB-231 breast): 43.5 µM | GI50 (OVCAR-8 ovarian): 4.8 µM | TGI (OVCAR-8 ovarian): > 100 µM | GI50 (UACC-62 melanoma): 3.8 µM | TGI (UACC-62 melanoma): > 100 µM | GI50 (UACC-257 melanoma): > 100 µM | TGI (UACC-257 melanoma): > 100 µM | GI50 (HS 578T breast): 1.06 µM | TGI (HS 578T breast): 5.82 µM | GI50 (A498 renal): 2.03 µM | TGI (A498 renal): 57.3 µM | GI50 (ACHN renal): 3.86 µM | TGI (ACHN renal): > 100 µM | GI50 (PC-3 prostate): > 100 µM | TGI (PC-3 prostate): > 100 µM | GI50 (IGROV1 ovarian): 4.55 µM | TGI (IGROV1 ovarian): > 100 µM | GI50 (MOLT-4 leukemia): 1.95 µM | TGI (MOLT-4 leukemia): 4 µM | GI50 (RXF 393 renal): 0.962 µM | GI50 (HOP-62 NSCLC): 4.98 µM | TGI (HOP-62 NSCLC): > 100 µM | GI50 (MDA-MB-468 breast): 3.64 µM | TGI (MDA-MB-468 breast): 9.09 µM | GI50 (DU-145 prostate): 3.85 µM | TGI (DU-145 prostate): > 100 µM | GI50 (BT-549 breast): 0.0807 µM | TGI (BT-549 breast): 7.02 µM | GI50 (HCT-15 colon): 3.17 µM | TGI (HCT-15 colon): > 100 µM | GI50 (COLO 205 colon): > 100 µM | TGI (COLO 205 colon): > 100 µM

Reference: PubChem BioAssay (NCI)
